Assay results: patent publication US20260262643A1, “HERBICIDAL BENZOXAZINES” (FMC CORPORATION, priority 2022, published 2026)

How the values were obtained:
[1] = test system: kochia; assay: Test C postemergence; format: in vivo, Bassia scoparia; details: Postemergence, 1000 g ai/ha
In short: (§1)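 Test material, in non-phytotoxic solvent with surfactant, was sprayed on the soil directly after seeding (preemergence) or on young plants of 2–10 cm with one to two leaves (postemergence). Greenhouse, 10 days; 0–100 visual control scale.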

[2] = test system: ryegrass, Italian; assay: Test C preemergence; format: in vivo, Lolium multiflorum; details: Preemergence, 1000 g ai/ha; visual rating after 10 days, 0 to 100 scale (0 no effect, 100 complete control)
In short: as §1

[3] = test system: ragweed; assay: Test C preemergence; format: in vivo, Ambrosia artemisiifolia; details: Preemergence, 1000 g ai/ha; visual rating after 10 days, 0 to 100 scale (0 no effect, 100 complete control)
In short: as §1

[4] = test system: pigweed, palmer; assay: Test C postemergence; format: in vivo, Amaranthus palmeri; details: Postemergence, 1000 g ai/ha
In short: as §1

[5] = test system: horseweed; assay: Test C postemergence; format: in vivo, Erigeron canadensis; details: Postemergence, 1000 g ai/ha
In short: as §1

[6] = test system: green foxtail; assay: Test C postemergence; format: in vivo, Setaria viridis; details: Postemergence, 1000 g ai/ha
In short: as §1

[7] = test system: barnyardgrass; assay: Test C postemergence; format: in vivo, Echinochloa crusgalli; details: Postemergence, 1000 g ai/ha
In short: as §1

[8] = test system: blackgrass; assay: Test C preemergence; format: in vivo, Alopecurus myosuroides; details: Preemergence, 1000 g ai/ha; visual rating after 10 days, 0 to 100 scale (0 no effect, 100 complete control)
In short: as §1

[9] = test system: blackgrass; assay: Test C postemergence; format: in vivo, Alopecurus myosuroides; details: Postemergence, 1000 g ai/ha
In short: as §1

[10] = test system: barnyardgrass; assay: Test C preemergence; format: in vivo, Echinochloa crusgalli; details: Preemergence, 1000 g ai/ha; visual rating after 10 days, 0 to 100 scale (0 no effect, 100 complete control)
In short: as §1

[11] = test system: pigweed, palmer; assay: Test C preemergence; format: in vivo, Amaranthus palmeri; details: Preemergence, 1000 g ai/ha; visual rating after 10 days, 0 to 100 scale (0 no effect, 100 complete control)
In short: as §1

[12] = test system: galium; assay: Test C postemergence; format: in vivo, Galium aparine; details: Postemergence, 1000 g ai/ha
In short: as §1

[13] = test system: ryegrass, Italian; assay: Test C postemergence; format: in vivo, Lolium multiflorum; details: Postemergence, 1000 g ai/ha
In short: as §1

[14] = test system: ragweed; assay: Test C postemergence; format: in vivo, Ambrosia artemisiifolia; details: Postemergence, 1000 g ai/ha
In short: as §1

[15] = test system: kochia; assay: Test C preemergence; format: in vivo, Bassia scoparia; details: Preemergence, 1000 g ai/ha; visual rating after 10 days, 0 to 100 scale (0 no effect, 100 complete control)
In short: as §1

[16] = test system: green foxtail; assay: Test C preemergence; format: in vivo, Setaria viridis; details: Preemergence, 1000 g ai/ha; visual rating after 10 days, 0 to 100 scale (0 no effect, 100 complete control)
In short: as §1

[17] = 10 days, visual 0 to 100 scale (0 no effect, 100 complete control)
[18] = 0 to 100 scale, 0 no effect, 100 complete control

Row | SMILES | Plant response rating, Kochia [1, 17] | Plant response rating, Ryegrass, Italian [2] | Plant response rating, Ragweed [3] | Plant response rating, Pigweed, Palmer [4, 17] | Plant response rating, Horseweed [5, 17] | Plant response rating, Foxtail, Green [6, 17] | Plant response rating, Barnyardgrass [7, 17] | Plant response rating, Blackgrass [8] | Plant response rating, Blackgrass [9, 17] | Plant response rating, Barnyardgrass [10] | Plant response rating, Pigweed, Palmer [11] | Plant response rating, Galium [12, 17] | Plant response rating, Ryegrass, Italian [13, 17] | Plant response rating, Ragweed [14, 17] | Plant response rating, Kochia [15] | Plant response rating, Foxtail, Green [16] | Plant response rating, Barnyardgrass [7, 18] | also measured
1 | Cc1cccc2c1O[C@@H](C)CN2C(=O)c1cccc(-n2cncc2Br)c1 [Compound 297] | 30 | 0 | 0 | 0 | 20 | 0 | 0 | 0 | 0 | 0 | 0 | 0 | 0 | 0 | 0 | 0 |  | 
2 | Cc1cccc2c1O[C@@H](C)CN2C(=O)c1cccc(-n2cncc2C#N)c1 [Compound 309] | 40 | 70 | 0 | 70 | 30 | 10 | 10 | 20 | 0 | 0 | 70 | 70 | 10 | 30 | 10 | 90 |  | 
3 | Cc1cnc(-c2cccc(C(=O)N3C[C@H](C)Oc4c(C)cccc43)c2)s1 [Compound 243] | 10 | 70 | 30 | 60 | 40 | 0 |  | 0 | 0 | 60 | 0 | 60 | 50 | 0 | 0 | 70 | 10 | 
4 | Cc1ccc(-c2cccc(C(=O)N3C[C@H](C)Oc4c(C)cccc43)c2)s1 [Compound 244] | 50 | 90 | 50 | 60 | 90 | 20 |  | 0 | 20 | 50 | 0 | 60 | 80 | 20 | 0 | 50 | 20 | 
5 | C[C@H]1CN(C(=O)c2cccc(-c3cncc(Cl)c3)c2)c2cccc(Cl)c2O1 [Compound 384] | 50 | 0 | 0 | 60 | 0 | 10 | 10 | 0 | 10 | 0 | 30 | 40 | 0 | 0 | 0 | 30 |  | 
6 | Cc1ccn(-c2cccc(C(=O)N3C[C@H](C)Oc4c(Cl)cccc43)c2)n1 [Compound 206] | 20 | 80 | 0 | 50 | 0 | 0 |  | 0 | 0 | 30 | 30 | 40 | 40 | 0 | 10 | 20 | 0 | 
7 | Cc1ccc(-c2cccc(C(=O)N3C[C@H](C)Oc4c(C)cccc43)c2)cn1 [Compound 159] |  | 20 | 0 |  |  |  |  | 0 |  | 0 | 20 |  |  |  | 0 | 20 | 10 | Plant response rating, Kochia [1, 18]: 40; Plant response rating, Pigweed, Palmer [4, 18]: 20; Plant response rating, Horseweed [5, 18]: 0; Plant response rating, Foxtail, Green [6, 18]: 30; Plant response rating, Blackgrass [9, 18]: 0; Plant response rating, Galium [12, 18]: 50; Plant response rating, Ryegrass, Italian [13, 18]: 40; Plant response rating, Ragweed [14, 18]: 60
8 | Cc1cc(-c2cccc(C(=O)N3C[C@H](C)Oc4c(Cl)cccc43)c2)sn1 [Compound 389] | 80 | 60 | 20 | 90 | 0 | 70 | 70 | 30 | 10 | 70 | 70 | 90 | 0 | 30 | 90 | 100 |  | 
9 | Cc1cc(-c2cccc(C(=O)N3C[C@H](C)Oc4c(C)cccc43)c2)ccn1 [Compound 163] |  | 20 | 0 |  |  |  |  | 10 |  | 0 | 0 |  |  |  | 0 | 10 | 0 | Plant response rating, Kochia [1, 18]: 50; Plant response rating, Pigweed, Palmer [4, 18]: 30; Plant response rating, Horseweed [5, 18]: 0; Plant response rating, Foxtail, Green [6, 18]: 10; Plant response rating, Blackgrass [9, 18]: 20; Plant response rating, Galium [12, 18]: 0; Plant response rating, Ryegrass, Italian [13, 18]: 0; Plant response rating, Ragweed [14, 18]: 20
